Assay results taken from ChEMBL document CHEMBL3862033 (J Med Chem, 2016).

What was measured:
[1] = molecular target: T1, 5-hydroxytryptamine receptor 2A (Homo sapiens, UniProt P28223); assay: Agonist activity at human 5-HT2AR expressed in Flp-In HEK cells assessed as calcium mobilization at 10 uM measured for 2 mins by Fluo-4 dye based FLIPR assay; format: cell-based; conditions: hek293, 2 min
[2] = molecular target: T1, 5-hydroxytryptamine receptor 2A; assay: Antagonist activity at human 5-HT2AR expressed in Flp-In HEK cells assessed as inhibition of serotonin induced calcium mobilization at 10 uM preincubated for 5 to 10 mins followed by serotonin addition by Fluo-4 dye based FLIPR assay relative to control; format: functional, cell-based; conditions: HEK293
Adenosine receptor A2a = Adenosine receptor A2a (Homo sapiens, UniProt P29274); assay: Displacement of [3 H]2-[p-(2-carboxyethyl)phenyl-ethylamino]-5'-N-ethylcarboxamidoadenosine from recombinant human adenosine receptor A2A expressed in HEK293 cell membranes at 10 uM after 60 mins by liquid scintillation counting method relative to control
[3] = Stability of compound in pH 6.5 fasted state simulated intestinal fluid assessed as compound remaining measured after 2 hrs; format: ADME; conditions: simulated gi fluid, pH 6.5, 2 h
[4] = molecular target: Sodium-dependent dopamine transporter (Homo sapiens, UniProt Q01959); assay: Inhibition of human dopamine transporter expressed in HEK293 cells assessed as inhibition of dopamine uptake measured after 30 mins by fluorescence analysis; format: cell-based
Cytochrome P450 3A4 = Cytochrome P450 3A4 (Homo sapiens, UniProt P08684); assay: Inhibition of CYP3A4 (unknown origin); format: ADME
Cytochrome P450 2D6 = Cytochrome P450 2D6 (Homo sapiens, UniProt P10635); assay: Inhibition of CYP2D6 (unknown origin); format: ADME
Cytochrome P450 2C19 = Cytochrome P450 2C19 (Homo sapiens, UniProt P33261); assay: Inhibition of CYP2C19 (unknown origin); format: ADME
Cytochrome P450 1A2 = Cytochrome P450 1A2 (Homo sapiens, UniProt P05177); assay: Inhibition of CYP1A2 (unknown origin); format: ADME
Sequence of Cytochrome P450 1A2 (P05177 whole entry): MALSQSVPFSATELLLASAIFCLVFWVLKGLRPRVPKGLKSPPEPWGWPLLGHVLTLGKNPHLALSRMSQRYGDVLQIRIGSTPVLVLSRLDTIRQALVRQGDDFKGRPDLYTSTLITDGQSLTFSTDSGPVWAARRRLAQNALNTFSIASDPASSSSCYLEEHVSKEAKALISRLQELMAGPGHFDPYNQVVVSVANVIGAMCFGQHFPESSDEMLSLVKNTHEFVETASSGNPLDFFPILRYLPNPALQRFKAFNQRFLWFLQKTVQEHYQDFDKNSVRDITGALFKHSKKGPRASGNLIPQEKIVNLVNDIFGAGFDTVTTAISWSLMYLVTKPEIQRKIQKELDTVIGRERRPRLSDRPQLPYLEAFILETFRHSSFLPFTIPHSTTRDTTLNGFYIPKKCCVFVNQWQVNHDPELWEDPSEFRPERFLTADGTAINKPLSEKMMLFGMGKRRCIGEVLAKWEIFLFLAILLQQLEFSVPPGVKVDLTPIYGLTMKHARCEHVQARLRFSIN

T1 sequence (P28223 whole entry): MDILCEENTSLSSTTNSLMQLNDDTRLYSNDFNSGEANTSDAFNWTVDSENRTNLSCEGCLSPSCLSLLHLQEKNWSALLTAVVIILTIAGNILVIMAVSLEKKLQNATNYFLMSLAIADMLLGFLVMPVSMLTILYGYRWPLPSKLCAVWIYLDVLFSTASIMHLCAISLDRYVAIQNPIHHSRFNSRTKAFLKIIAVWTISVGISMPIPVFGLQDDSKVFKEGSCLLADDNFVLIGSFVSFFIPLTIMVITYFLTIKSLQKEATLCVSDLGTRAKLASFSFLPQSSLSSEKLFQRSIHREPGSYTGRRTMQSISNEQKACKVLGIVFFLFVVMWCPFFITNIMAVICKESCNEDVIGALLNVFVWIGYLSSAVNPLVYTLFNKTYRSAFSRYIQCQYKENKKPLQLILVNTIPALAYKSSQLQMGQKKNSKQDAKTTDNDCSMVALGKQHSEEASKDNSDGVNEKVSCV
Sequence of Adenosine receptor A2a (P29274 whole entry): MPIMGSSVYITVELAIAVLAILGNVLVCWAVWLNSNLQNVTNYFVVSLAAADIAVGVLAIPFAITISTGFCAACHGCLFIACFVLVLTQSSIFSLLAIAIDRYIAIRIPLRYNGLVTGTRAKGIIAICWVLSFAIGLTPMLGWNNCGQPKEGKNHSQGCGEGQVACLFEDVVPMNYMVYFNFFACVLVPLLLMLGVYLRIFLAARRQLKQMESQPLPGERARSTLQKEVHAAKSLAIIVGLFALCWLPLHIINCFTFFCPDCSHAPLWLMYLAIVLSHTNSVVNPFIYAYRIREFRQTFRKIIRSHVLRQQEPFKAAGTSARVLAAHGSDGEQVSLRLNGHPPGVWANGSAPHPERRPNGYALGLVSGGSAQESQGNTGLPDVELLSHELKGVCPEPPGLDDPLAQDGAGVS
Sequence of Sodium-dependent dopamine transporter (Q01959 whole entry): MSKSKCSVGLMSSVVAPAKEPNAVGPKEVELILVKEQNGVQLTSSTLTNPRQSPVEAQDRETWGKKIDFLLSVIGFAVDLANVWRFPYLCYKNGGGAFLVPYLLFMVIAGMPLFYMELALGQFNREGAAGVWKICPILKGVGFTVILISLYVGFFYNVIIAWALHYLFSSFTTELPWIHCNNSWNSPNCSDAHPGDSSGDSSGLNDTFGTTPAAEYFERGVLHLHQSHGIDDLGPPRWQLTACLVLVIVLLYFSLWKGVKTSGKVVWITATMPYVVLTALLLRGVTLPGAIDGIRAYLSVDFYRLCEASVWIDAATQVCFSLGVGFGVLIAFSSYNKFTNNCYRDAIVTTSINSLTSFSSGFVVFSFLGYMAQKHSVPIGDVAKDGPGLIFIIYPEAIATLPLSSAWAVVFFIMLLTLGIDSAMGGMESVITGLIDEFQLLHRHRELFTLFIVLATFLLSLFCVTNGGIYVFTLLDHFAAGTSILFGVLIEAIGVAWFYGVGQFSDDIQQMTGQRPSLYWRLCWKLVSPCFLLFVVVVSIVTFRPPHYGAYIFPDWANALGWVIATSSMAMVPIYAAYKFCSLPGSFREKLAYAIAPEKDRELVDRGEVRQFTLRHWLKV
Sequence of Cytochrome P450 2D6 (P10635 whole entry): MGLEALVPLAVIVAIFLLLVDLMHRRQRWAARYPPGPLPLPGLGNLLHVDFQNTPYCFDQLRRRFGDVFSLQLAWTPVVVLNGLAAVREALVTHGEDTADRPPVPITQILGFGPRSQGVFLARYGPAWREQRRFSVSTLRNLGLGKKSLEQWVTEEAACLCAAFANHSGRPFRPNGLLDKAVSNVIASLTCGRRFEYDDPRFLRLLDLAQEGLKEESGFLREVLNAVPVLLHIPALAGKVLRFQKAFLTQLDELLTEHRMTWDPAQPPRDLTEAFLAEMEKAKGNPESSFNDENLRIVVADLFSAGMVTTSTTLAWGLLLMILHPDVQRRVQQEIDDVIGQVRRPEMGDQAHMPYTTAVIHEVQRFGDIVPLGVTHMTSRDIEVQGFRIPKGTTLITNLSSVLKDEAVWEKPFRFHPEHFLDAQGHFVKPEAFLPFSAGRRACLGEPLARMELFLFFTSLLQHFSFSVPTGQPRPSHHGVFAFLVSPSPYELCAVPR
Sequence of Cytochrome P450 3A4 (P08684 whole entry): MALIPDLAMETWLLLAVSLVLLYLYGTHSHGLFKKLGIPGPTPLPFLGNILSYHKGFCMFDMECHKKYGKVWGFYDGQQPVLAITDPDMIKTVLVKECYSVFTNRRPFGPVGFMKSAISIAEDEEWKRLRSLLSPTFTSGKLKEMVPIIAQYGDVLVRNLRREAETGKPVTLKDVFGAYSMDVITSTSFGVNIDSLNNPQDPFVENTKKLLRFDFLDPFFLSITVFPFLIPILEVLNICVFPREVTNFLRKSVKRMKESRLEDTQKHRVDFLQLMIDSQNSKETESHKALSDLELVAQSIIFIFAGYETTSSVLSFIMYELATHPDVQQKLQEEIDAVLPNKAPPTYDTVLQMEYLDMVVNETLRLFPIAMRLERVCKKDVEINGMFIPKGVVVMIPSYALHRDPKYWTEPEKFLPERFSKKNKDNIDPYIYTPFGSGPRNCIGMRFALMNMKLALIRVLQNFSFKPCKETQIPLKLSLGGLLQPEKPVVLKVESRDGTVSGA
Sequence of Cytochrome P450 2C19 (P33261 whole entry): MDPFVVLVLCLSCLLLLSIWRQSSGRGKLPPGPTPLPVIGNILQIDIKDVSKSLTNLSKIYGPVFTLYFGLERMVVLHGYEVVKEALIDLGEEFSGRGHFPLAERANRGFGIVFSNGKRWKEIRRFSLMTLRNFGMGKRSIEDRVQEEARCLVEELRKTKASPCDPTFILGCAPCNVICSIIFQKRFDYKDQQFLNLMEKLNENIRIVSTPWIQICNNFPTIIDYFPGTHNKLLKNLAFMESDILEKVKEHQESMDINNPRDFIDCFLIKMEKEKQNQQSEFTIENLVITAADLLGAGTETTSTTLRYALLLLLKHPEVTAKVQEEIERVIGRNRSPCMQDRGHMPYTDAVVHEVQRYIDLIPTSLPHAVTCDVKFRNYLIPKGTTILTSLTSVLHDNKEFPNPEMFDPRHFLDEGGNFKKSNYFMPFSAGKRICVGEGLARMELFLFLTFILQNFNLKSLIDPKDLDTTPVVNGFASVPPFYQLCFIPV

Work on CCOC(=O)[C@@]12C[C@@H]1[C@@H](n1cnc3c(NC(C4CC4)C4CC4)nc(Cl)nc31)[C@H](O)[C@@H]2O yielded an Activity [1] of over 10% and an inhibition [2] of over 10%.

Work on COC(=O)[C@@]12C[C@@H]1[C@@H](n1cnc3c(NC(C4CC4)C4CC4)nc(Cl)nc31)[C@H](O)[C@@H]2O yielded an inhibition (Adenosine receptor A2a) of 33% and a Stability [3] of 97%.

Compound OC[C@@]12C[C@@H]1[C@@H](n1cnc3c(NC(C4CC4)C4CC4)nc(Cl)nc31)[C@H](O)[C@@H]2O has a Ki [4] of 4.8 µM.

Work on CNC(=O)[C@@]12C[C@@H]1[C@@H](n1cnc3c(NC(C4CC4)C4CC4)nc(Cl)nc31)[C@H](O)[C@@H]2O yielded an IC50 (Cytochrome P450 3A4) of over 30 µM, an IC50 (Cytochrome P450 2D6) of over 30 µM and an IC50 (Cytochrome P450 2C19) of over 30 µM. It also gave an IC50 (Cytochrome P450 1A2) of over 30 µM.
